Test results reported in ChEMBL document CHEMBL4342426, “Structure-activity relationship of 4-azaindole-2-piperidine derivatives as agents against Trypanosoma cruzi” (Bioorg Med Chem Lett, 2020).

Columns and labels:
in vitro [1] = settings: PAMPA
Description: Effective permeability of compound by PAMPA assay

in vitro [2] = settings: human, liver microsomes
Description: Metabolic stability in human liver microsomes assessed as intrinsic clearance at 0.5 uM incubated for 30 mins by LC-MS/MS analysis

Trypanosoma cruzi = experiment: microbe, parasite or virus in culture; settings: Tulahuen CL2, MRC-5 SV2, 168 h
Description: Antitrypanosomal activity against Trypanosoma cruzi Tulahuen CL2 amastigotes infected in human MRC5 SV2 cells incubated for 7 days by chlorophenol red beta-D-galactopyranoside substrate based spectrophotometric assay

[3] = system: Trypanosoma brucei rhodesiense; experiment: microbe, parasite or virus in culture; settings: STIB900, 72 h
Description: Antiprotozoal activity against Trypanosoma brucei rhodesiense STIB900 trypomastigotes incubated for 72 hrs by resazurin dye based fluorimetric analysis

cells = settings: Homo sapiens, MRC-5 SV2, 72 h
Description: (§1) Cytotoxicity against human MRC5 SV2 cells assessed as reduction in cell viability incubated for 3 days by fluorimetry

in vitro [4] = settings: mouse, peritoneal macrophages
Description: (§2) Cytotoxicity against mouse peritoneal Macrophage cells assessed as reduction in cell viability incubated for 3 days by fluorimetry

Trypanosoma brucei = experiment: microbe, parasite or virus in culture; settings: Squib 427, 72 h
Description: Antitrypanosomal activity against Trypanosoma brucei Squib 427 assessed as reduction in parasite growth incubated for 72 hrs by resazurin dye based fluorimetric analysis

in vitro [5] = settings: human, MRC5 SV2 cells
Description: Selectivity index, ratio of IC50 for human MRC5 SV2 cells to IC50 for Trypanosoma cruzi Tulahuen CL2 amastigotes infected in human MRC5 SV2 cells

in vitro [6] = settings: mouse, liver microsomes
Description: Metabolic stability in mouse liver microsomes assessed as fraction unbound at 0.5 uM incubated for 30 mins by LC-MS/MS analysis

in vitro [7] = settings: mouse, liver microsomes; remark: listed apart in the source
Description: Metabolic stability in mouse liver microsomes assessed as intrinsic clearance at 0.5 uM incubated for 30 mins by LC-MS/MS analysis

in vitro [8] = settings: human, MRC5 SV2 cells; remark: listed apart in the source
Description: as §1

physchem = settings: buffer, pH 7.4
Description: Lipophilicity, logD of compound at pH 7.4 by HPLC analysis

Leishmania infantum = experiment: microbe, parasite or virus in culture; settings: for IC50: MHOM/MA(BE)/67/ITMAP263, 120 h; for IC90: MHOM/MA(BE)/67/ITMAP263, in Mus musculus, 120 h
Description: Antileishmanial activity against amastigote stage of Leishmania infantum MHOM/MA(BE)/67/ITMAP263 infected in mouse peritoneal macrophage assessed as parasite growth inhibition incubated for 5 days by Giemsa staining based assay

Macrophage = experiment: cells; settings: Mus musculus, 72 h
Description: as §2

in vitro [9] = settings: human, MRC5 SV2 cells; remark: listed apart in the source
Description: Selectivity index, ratio of IC50 for human MRC5 SV2 cells to IC50 for Trypanosoma brucei rhodesiense STIB900 trypomastigotes

Papp (in vitro [1]) | CLint scaled at 0.5 h, 0.5 µM (in vitro [2]) | microsomal CLint at 0.5 h, 0.5 µM (in vitro [2]) | IC50 [3] | IC90 [3] | IC90 at 72 h (in vitro [4]) | IC50 (Trypanosoma brucei) | IC90 (Trypanosoma brucei) | fraction unbound at 0.5 h, 0.5 µM (in vitro [6]) | CLint scaled at 0.5 h, 0.5 µM (in vitro [7]) | microsomal CLint at 0.5 h, 0.5 µM (in vitro [7]) | IC90 at 72 h (in vitro [8]) | logD (physchem) | IC50 (Leishmania infantum) | IC90 (Leishmania infantum) | Compound | IC50 (Trypanosoma cruzi) | IC90 (Trypanosoma cruzi) | IC50 (cells) | selectivity ratio (in vitro [5]) | IC50 (Macrophage) | further results
2.86 ×10⁻⁶ cm/s | 95.8 mL/min/kg | 58.2 µL/min/mg | 64 µM | 64 µM | 64 µM | 64 µM | 64 µM | 0.656 | 5410 mL/min/kg | 1110 µL/min/mg | 64 µM | 3.12 | 64 µM | 64 µM | O=C(c1cc(C(F)(F)F)no1)N1CCC(c2cc3ncccc3[nH]2)C1 (centres undefined) | 8.3 µM | 64 µM | 64 µM | 7.25 | 64 µM | 
3.18 ×10⁻⁶ cm/s | < 27.8 mL/min/kg | < 23 µL/min/mg | 64 µM | 64 µM | 64 µM | 64 µM | 64 µM | 0.896 | 279 mL/min/kg | 78.3 µL/min/mg | 64 µM | 2.4 | 64 µM | 64 µM | O=C(c1cc(C2CC2)no1)N1CCOC(c2cc3ncccc3[nH]2)C1 (centres undefined) | 34.6 µM | 63.5 µM | 64 µM | 1.85 | 64 µM | 
9.64 ×10⁻⁶ cm/s | 49.3 mL/min/kg | 35.1 µL/min/mg | 64 µM | 64 µM | 64 µM | 64 µM | 64 µM | 0.767 | 426 mL/min/kg | 102 µL/min/mg | 64 µM | 2.23 | 64 µM | 64 µM | CCN(C(=O)CCc1nc2ncccc2[nH]1)c1ccccc1 | 49.1 µM | 64 µM | 64 µM | 1.3 | 64 µM | 
2.85 ×10⁻⁶ cm/s | < 30.2 mL/min/kg | < 23 µL/min/mg | 64 µM | 64 µM | 64 µM | 64 µM | 64 µM | 0.83 | 1470 mL/min/kg | 382 µL/min/mg | 64 µM | 1.88 | 64 µM | 64 µM | CN(CCc1cc2ncccc2[nH]1)C(=O)c1ccccc1 | 36.2 µM | 64 µM | 64 µM | 1.75 | 64 µM | 
11.4 ×10⁻⁶ cm/s | < 31.7 mL/min/kg | < 23 µL/min/mg | 30.3 µM | 57.6 µM | 64 µM | 64 µM | 64 µM |  | 439 mL/min/kg | 108 µL/min/mg | 64 µM | 2.79 | 64 µM | 64 µM | CCN(CCc1nc2ncc(Cl)cc2[nH]1)C(=O)c1ccc(F)cc1 | 64 µM | 64 µM | 64 µM |  | 64 µM | selectivity ratio (in vitro [9]): 2.1
4.3 ×10⁻⁶ cm/s | 118 mL/min/kg | 89.8 µL/min/mg | 64 µM | 64 µM | 64 µM | 64 µM | 64 µM | 0.825 | 529 mL/min/kg | 137 µL/min/mg | 64 µM | 2.89 | 64 µM | 64 µM | O=C(c1cc(C(F)(F)F)no1)N1CCOC(c2cc3ncccc3[nH]2)C1 (centres undefined) | 35.7 µM | 64 µM | 64 µM | 1.8 | 64 µM | 
